According to patent publication US10251874B2, “Crystalline forms of a JAK inhibitor compound” (THERAVANCE BIOPHARMA R&D IP, LLC, priority 2017, dated 2019):
Like-named read-outs stand apart in the source and are kept apart here.

Settings: for sorption/desorption profile (hygroscopicity): DMS, two cycles of sorption and desorption, 25° C.
Experimental: Dynamic moisture sorption (DMS) measurement was performed using a VTI atmospheric microbalance, SGA-100 system (VTI Corp., Hialeah, FL 33016). A weighed sample was used and the humidity was lowest possible value (close to 0% RH) at the start of the analysis. The DMS analysis consisted of an initial drying step (˜0%RH) for 120 minutes, followed by two cycles of sorption and desorption with a scan rate of 5% RH/step over the humidity range of 5% RH to 90% RH. The DMS run was performed isothermally at 25° C.

Structure (SMILES) | sorption/desorption profile (hygroscopicity) | total moisture uptake (relative humidity between about 30% and about 90% at room temperature) | total moisture uptake (relative humidity between about 5% and about 90% at room temperature)
CCc1cc(O)c(F)cc1-c1ccc2c(-c3nc4c([nH]3)CCN(C3CCN(C)CC3)C4)n[nH]c2c1.O.O=C(O)C(=O)O [oxalate hydrate, Crystalline Oxalate Hydrate of 5-ethyl-2-fluoro-4-(3-(5-(1-methylpiperidin-4-yl)-4,5,6,7-tetrahydro-1H-imidazo[4,5-c]pyridin-2-yl)-1H-indazol-6-yl)phenol] | slight propensity for hygroscopicity | about 1% | –
CCc1cc(O)c(F)cc1-c1ccc2c(-c3nc4c([nH]3)CCN(C3CCN(C)CC3)C4)n[nH]c2c1.O.O=C(O)CCC(=O)O [succinate hydrate, Crystalline Succinate Hydrate of 5-ethyl-2-fluoro-4-(3-(5-(1-methylpiperidin-4-yl)-4,5,6,7-tetrahydro-1H-imidazo[4,5-c]pyridin-2-yl)-1H-indazol-6-yl)phenol] | slight propensity for hygroscopicity | – | about 2%
